Assay results published in patent US6358885B1, “Substituted phenylheterocyclic herbicides” (Mississippi State University, priority 1992, dated 2002).

Legend:
Test in all cases: Test B preemergence/postemergence greenhouse plant response rating 0 to 10
barley = type: in vivo, Hordeum vulgare; conditions: for Plant response rating, Barley: 0 to 10 scale
Summary of the method: (§1)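 Postemergence treatment of plants two to eighteen cm tall ran alongside preemergence treatment of planted seed, each using compound in a non-phytotoxic solvent.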

barnyardgrass = type: in vivo, Echinochloa crus-galli; conditions: for Plant response rating, Barnyardgrass: 0 to 10 scale
Summary of the method: as §1

bedstraw = type: in vivo, Galium aparine; conditions: for Plant response rating, Bedstraw: 0 to 10 scale
Summary of the method: as §1

blackgrass = type: in vivo, Alopecurus myosuroides; conditions: for Plant response rating, Blackgrass: 0 to 10 scale
Summary of the method: as §1

cheatgrass = type: in vivo, Bromus secalinus; conditions: for Plant response rating, Cheatgrass: 0 to 10 scale
Summary of the method: as §1

chickweed = type: in vivo, Stellaria media; conditions: for Plant response rating, Chickweed: 0 to 10 scale
Summary of the method: as §1

cocklebur = type: in vivo, Xanthium pensylvanicum; conditions: for Plant response rating, Cocklebur: 0 to 10 scale
Summary of the method: as §1

corn = type: in vivo, Zea mays; conditions: for Plant response rating, Corn: 0 to 10 scale
Summary of the method: as §1

cotton = type: in vivo, Gossypium hirsutum; conditions: for Plant response rating, Cotton: 0 to 10 scale
Summary of the method: as §1

crabgrass = type: in vivo, Digitaria spp.; conditions: for Plant response rating, Crabgrass: 0 to 10 scale
Summary of the method: as §1

giant foxtail = type: in vivo, Setaria faberii; conditions: for Plant response rating, Giant foxtail: 0 to 10 scale
Summary of the method: as §1

lambsquarters = type: in vivo, Chenopodium album; conditions: for Plant response rating, Lambsquarter: 0 to 10 scale
Summary of the method: as §1

morningglory = type: in vivo, Ipomoea hederacea; conditions: for Plant response rating, Morningglory: 0 to 10 scale
Summary of the method: as §1

rape = type: in vivo, Brassica napus; conditions: for Plant response rating, Rape: 0 to 10 scale
Summary of the method: as §1

rice = type: in vivo, Oryza sativa; conditions: for Plant response rating, Rice: 0 to 10 scale
Summary of the method: as §1

sorghum = type: in vivo, Sorghum bicolor; conditions: for Plant response rating, Sorghum: 0 to 10 scale
Summary of the method: as §1

soybean = type: in vivo, Glycine max; conditions: for Plant response rating, Soybean: 0 to 10 scale
Summary of the method: as §1

sugar beet = type: in vivo, Beta vulgaris; conditions: for Plant response rating, Sugar beet: 0 to 10 scale
Summary of the method: as §1

velvetleaf = type: in vivo, Abutilon theophrasti; conditions: for Plant response rating, Velvetleaf: 0 to 10 scale
Summary of the method: as §1

wheat = type: in vivo, Triticum aestivum; conditions: for Plant response rating, Wheat: 0 to 10 scale
Summary of the method: as §1

wild buckwheat = type: in vivo, Polygonum convolvulus; conditions: for Plant response rating, Wild buckwheat: 0 to 10 scale
Summary of the method: as §1

wild oat = type: in vivo, Avena fatua; conditions: for Plant response rating, Wild oat: 0 to 10 scale
Summary of the method: as §1

purple nutsedge = type: in vivo, Cyperus rotundus; conditions: for Plant response rating, Nutsedge: 0 to 10 scale
Summary of the method: as §1

CC(C)OC(=O)COc1cc(-c2nn3c(c2Br)CCCC3)c(F)cc1Cl [Compound 64]
10: Plant response rating, Bedstraw (bedstraw; POSTEMERGENCE, Rate 50 g/ha) | Plant response rating, Bedstraw (bedstraw; Rate 200 g/ha, POSTEMERGENCE) | Plant response rating, Cocklebur (cocklebur; POSTEMERGENCE, Rate 50 g/ha) | Plant response rating, Cocklebur (cocklebur; Rate 200 g/ha, POSTEMERGENCE) | Plant response rating, Cotton (cotton; POSTEMERGENCE, Rate 50 g/ha) | Plant response rating, Cotton (cotton; Rate 200 g/ha, POSTEMERGENCE) | Plant response rating, Lambsquarter (lambsquarters; PREEMERGENCE, Rate 50 g/ha) | Plant response rating (0 to 10 scale), Lambsquarter (lambsquarters; PREEMERGENCE, Rate 200 g/ha) | Plant response rating, Lambsquarter (lambsquarters; Rate 200 g/ha, POSTEMERGENCE) | Plant response rating, Morningglory (morningglory; Rate 200 g/ha, POSTEMERGENCE) | Plant response rating, Rape (rape; Rate 200 g/ha, POSTEMERGENCE) | Plant response rating, Sugar beet (sugar beet; POSTEMERGENCE, Rate 50 g/ha) | Plant response rating (0 to 10 scale), Sugar beet (sugar beet; PREEMERGENCE, Rate 200 g/ha) | Plant response rating, Sugar beet (sugar beet; Rate 200 g/ha, POSTEMERGENCE) | Plant response rating, Velvetleaf (velvetleaf; POSTEMERGENCE, Rate 50 g/ha) | Plant response rating, Velvetleaf (velvetleaf; Rate 200 g/ha, POSTEMERGENCE) | Plant response rating, Wild buckwheat (wild buckwheat; POSTEMERGENCE, Rate 50 g/ha) | Plant response rating (0 to 10 scale), Wild buckwheat (wild buckwheat; PREEMERGENCE, Rate 200 g/ha) | Plant response rating, Wild buckwheat (wild buckwheat; Rate 200 g/ha, POSTEMERGENCE)
0: Plant response rating, Barley (barley; PREEMERGENCE, Rate 50 g/ha) | Plant response rating (0 to 10 scale), Barley (barley; PREEMERGENCE, Rate 200 g/ha) | Plant response rating, Barnyardgrass (barnyardgrass; PREEMERGENCE, Rate 50 g/ha) | Plant response rating, Bedstraw (bedstraw; PREEMERGENCE, Rate 50 g/ha) | Plant response rating, Chickweed (chickweed; PREEMERGENCE, Rate 50 g/ha) | Plant response rating (0 to 10 scale), Chickweed (chickweed; PREEMERGENCE, Rate 200 g/ha) | Plant response rating, Cocklebur (cocklebur; PREEMERGENCE, Rate 50 g/ha) | Plant response rating, Corn (corn; PREEMERGENCE, Rate 50 g/ha) | Plant response rating (0 to 10 scale), Corn (corn; PREEMERGENCE, Rate 200 g/ha) | Plant response rating, Cotton (cotton; PREEMERGENCE, Rate 50 g/ha) | Plant response rating (0 to 10 scale), Cotton (cotton; PREEMERGENCE, Rate 200 g/ha) | Plant response rating, Crabgrass (crabgrass; PREEMERGENCE, Rate 50 g/ha) | Plant response rating (0 to 10 scale), Crabgrass (crabgrass; PREEMERGENCE, Rate 200 g/ha) | Plant response rating, Giant foxtail (giant foxtail; PREEMERGENCE, Rate 50 g/ha) | Plant response rating (0 to 10 scale), Giant foxtail (giant foxtail; PREEMERGENCE, Rate 200 g/ha) | Plant response rating, Morningglory (morningglory; PREEMERGENCE, Rate 50 g/ha) | Plant response rating, Rape (rape; PREEMERGENCE, Rate 50 g/ha) | Plant response rating (0 to 10 scale), Rape (rape; PREEMERGENCE, Rate 200 g/ha) | Plant response rating, Rice (rice; PREEMERGENCE, Rate 50 g/ha) | Plant response rating, Sorghum (sorghum; PREEMERGENCE, Rate 50 g/ha) | Plant response rating (0 to 10 scale), Sorghum (sorghum; PREEMERGENCE, Rate 200 g/ha) | Plant response rating, Soybean (soybean; PREEMERGENCE, Rate 50 g/ha) | Plant response rating (0 to 10 scale), Soybean (soybean; PREEMERGENCE, Rate 200 g/ha) | Plant response rating, Wheat (wheat; PREEMERGENCE, Rate 50 g/ha) | Plant response rating (0 to 10 scale), Wheat (wheat; PREEMERGENCE, Rate 200 g/ha) | Plant response rating, Wild oat (wild oat; PREEMERGENCE, Rate 50 g/ha) | Plant response rating (0 to 10 scale), Wild oat (wild oat; PREEMERGENCE, Rate 200 g/ha) | Plant response rating, Nutsedge (purple nutsedge; PREEMERGENCE, Rate 50 g/ha) | Plant response rating (0 to 10 scale), Nutsedge (purple nutsedge; PREEMERGENCE, Rate 200 g/ha)
5: Plant response rating, Barnyardgrass (barnyardgrass; POSTEMERGENCE, Rate 50 g/ha) | Plant response rating, Chickweed (chickweed; Rate 200 g/ha, POSTEMERGENCE) | Plant response rating, Corn (corn; POSTEMERGENCE, Rate 50 g/ha) | Plant response rating, Crabgrass (crabgrass; Rate 200 g/ha, POSTEMERGENCE) | Plant response rating, Rice (rice; Rate 200 g/ha, POSTEMERGENCE) | Plant response rating, Soybean (soybean; Rate 200 g/ha, POSTEMERGENCE) | Plant response rating, Wild buckwheat (wild buckwheat; PREEMERGENCE, Rate 50 g/ha)
7: Plant response rating, Barnyardgrass (barnyardgrass; Rate 200 g/ha, POSTEMERGENCE) | Plant response rating, Rape (rape; POSTEMERGENCE, Rate 50 g/ha)
6: Plant response rating, Soybean (soybean; POSTEMERGENCE, Rate 50 g/ha) | Plant response rating (0 to 10 scale), Velvetleaf (velvetleaf; PREEMERGENCE, Rate 200 g/ha)
2: Plant response rating, Barley (barley; POSTEMERGENCE, Rate 50 g/ha) | Plant response rating, Blackgrass (blackgrass; POSTEMERGENCE, Rate 50 g/ha) | Plant response rating (0 to 10 scale), Blackgrass (blackgrass; PREEMERGENCE, Rate 200 g/ha) | Plant response rating, Cheatgrass (cheatgrass; POSTEMERGENCE, Rate 50 g/ha) | Plant response rating, Cheatgrass (cheatgrass; PREEMERGENCE, Rate 50 g/ha) | Plant response rating (0 to 10 scale), Cheatgrass (cheatgrass; PREEMERGENCE, Rate 200 g/ha) | Plant response rating, Chickweed (chickweed; POSTEMERGENCE, Rate 50 g/ha) | Plant response rating (0 to 10 scale), Cocklebur (cocklebur; PREEMERGENCE, Rate 200 g/ha) | Plant response rating (0 to 10 scale), Rice (rice; PREEMERGENCE, Rate 200 g/ha) | Plant response rating, Wheat (wheat; Rate 200 g/ha, POSTEMERGENCE) | Plant response rating, Nutsedge (purple nutsedge; POSTEMERGENCE, Rate 50 g/ha) | Plant response rating, Nutsedge (purple nutsedge; Rate 200 g/ha, POSTEMERGENCE)
8: Plant response rating (0 to 10 scale), Morningglory (morningglory; PREEMERGENCE, Rate 200 g/ha)
4: Plant response rating, Rice (rice; POSTEMERGENCE, Rate 50 g/ha) | Plant response rating, Sorghum (sorghum; POSTEMERGENCE, Rate 50 g/ha) | Plant response rating, Sorghum (sorghum; Rate 200 g/ha, POSTEMERGENCE)
3: Plant response rating, Barley (barley; Rate 200 g/ha, POSTEMERGENCE) | Plant response rating, Blackgrass (blackgrass; Rate 200 g/ha, POSTEMERGENCE) | Plant response rating, Cheatgrass (cheatgrass; Rate 200 g/ha, POSTEMERGENCE) | Plant response rating, Corn (corn; Rate 200 g/ha, POSTEMERGENCE) | Plant response rating, Crabgrass (crabgrass; POSTEMERGENCE, Rate 50 g/ha) | Plant response rating, Giant foxtail (giant foxtail; POSTEMERGENCE, Rate 50 g/ha) | Plant response rating, Giant foxtail (giant foxtail; Rate 200 g/ha, POSTEMERGENCE) | Plant response rating, Velvetleaf (velvetleaf; PREEMERGENCE, Rate 50 g/ha) | Plant response rating, Wheat (wheat; POSTEMERGENCE, Rate 50 g/ha) | Plant response rating, Wild oat (wild oat; POSTEMERGENCE, Rate 50 g/ha) | Plant response rating, Wild oat (wild oat; Rate 200 g/ha, POSTEMERGENCE)
1: Plant response rating (0 to 10 scale), Barnyardgrass (barnyardgrass; PREEMERGENCE, Rate 200 g/ha) | Plant response rating (0 to 10 scale), Bedstraw (bedstraw; PREEMERGENCE, Rate 200 g/ha) | Plant response rating, Blackgrass (blackgrass; PREEMERGENCE, Rate 50 g/ha)
9: Plant response rating, Lambsquarter (lambsquarters; POSTEMERGENCE, Rate 50 g/ha) | Plant response rating, Morningglory (morningglory; POSTEMERGENCE, Rate 50 g/ha) | Plant response rating, Sugar beet (sugar beet; PREEMERGENCE, Rate 50 g/ha)
